In PubChem BioAssay (NCI):
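Dose response: 5 concentrations. Exposure: 48 h. Format: 96-well plates. Endpoint: linear interpolation; highest concentration if not reached. TGI: concentration producing complete growth inhibition.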

How the values were obtained:
Assay in all cases: NCI tumour cell line growth inhibition, 48 h
786-0 renal = system: 786-0 renal
A498 renal = system: A498 renal
A549 NSCLC = system: A549 NSCLC
ACHN renal = system: ACHN renal
BT-549 breast = system: BT-549 breast
CAKI-1 renal = system: CAKI-1 renal
COLO 205 colon = system: COLO 205 colon
DU-145 prostate = system: DU-145 prostate
EKVX NSCLC = system: EKVX NSCLC
HCC-2998 colon = system: HCC-2998 colon
HCT-116 colon = system: HCT-116 colon
HCT-15 colon = system: HCT-15 colon
HL-60(TB) leukemia = system: HL-60(TB) leukemia
HOP-62 NSCLC = system: HOP-62 NSCLC
HS 578T breast = system: HS 578T breast
HT29 colon = system: HT29 colon
IGROV1 ovarian = system: IGROV1 ovarian
K-562 leukemia = system: K-562 leukemia
KM12 colon = system: KM12 colon
LOX IMVI melanoma = system: LOX IMVI melanoma
M14 melanoma = system: M14 melanoma
MALME-3M melanoma = system: MALME-3M melanoma
MCF7 breast = system: MCF7 breast
MDA-MB-231 breast = system: MDA-MB-231 breast
MDA-MB-435 = system: MDA-MB-435
MDA-N = system: MDA-N
MOLT-4 leukemia = system: MOLT-4 leukemia
NCI-H226 lung = system: NCI-H226 lung
NCI-H23 lung = system: NCI-H23 lung
NCI-H460 lung = system: NCI-H460 lung
NCI-H522 lung = system: NCI-H522 lung
NCI/ADR-RES ovarian = system: NCI/ADR-RES ovarian
OVCAR-3 ovarian = system: OVCAR-3 ovarian
OVCAR-4 ovarian = system: OVCAR-4 ovarian
OVCAR-5 ovarian = system: OVCAR-5 ovarian
OVCAR-8 ovarian = system: OVCAR-8 ovarian
PC-3 prostate = system: PC-3 prostate
RPMI-8226 leukemia = system: RPMI-8226 leukemia
RXF 393 renal = system: RXF 393 renal
SF-268 CNS = system: SF-268 CNS
SF-295 CNS = system: SF-295 CNS
SK-MEL-2 melanoma = system: SK-MEL-2 melanoma
SK-MEL-28 melanoma = system: SK-MEL-28 melanoma
SK-MEL-5 melanoma = system: SK-MEL-5 melanoma
SK-OV-3 ovarian = system: SK-OV-3 ovarian
SN12C renal = system: SN12C renal
SNB-19 CNS = system: SNB-19 CNS
SNB-75 CNS = system: SNB-75 CNS
SR leukemia = system: SR leukemia
SW-620 colon = system: SW-620 colon
T-47D breast = system: T-47D breast
U251 CNS = system: U251 CNS
UACC-62 melanoma = system: UACC-62 melanoma
UO-31 renal = system: UO-31 renal
CCRF-CEM leukemia = system: CCRF-CEM leukemia
HOP-92 NSCLC = system: HOP-92 NSCLC
SF-539 CNS = system: SF-539 CNS
TK-10 renal = system: TK-10 renal
UACC-257 melanoma = system: UACC-257 melanoma

Compound C[C@@H](NC(=O)Nc1cccc(C(=O)Nc2cc(C(C)(C)C)ccc2C(=O)O)n1)c1ccccc1 has a TGI (786-0 renal) of over 100 µM, a TGI (A498 renal) of over 100 µM and a TGI (A549 NSCLC) of over 100 µM. For the same compound, the TGI (ACHN renal) was over 100 µM, the TGI (BT-549 breast) was over 100 µM and the TGI (CAKI-1 renal) was over 100 µM. It also gave a TGI (COLO 205 colon) of 60.6 µM, a TGI (DU-145 prostate) of over 100 µM and a TGI (EKVX NSCLC) of over 100 µM. It also gave a TGI (HCC-2998 colon) of over 100 µM, a TGI (HCT-116 colon) of 44.1 µM and a TGI (HCT-15 colon) of over 100 µM. It also gave a TGI (HL-60(TB) leukemia) of over 100 µM, a TGI (HOP-62 NSCLC) of 86.1 µM and a TGI (HS 578T breast) of over 100 µM. It also gave a TGI (HT29 colon) of over 100 µM, a TGI (IGROV1 ovarian) of over 100 µM and a TGI (K-562 leukemia) of over 100 µM. It also gave a TGI (KM12 colon) of over 100 µM, a TGI (LOX IMVI melanoma) of 36.7 µM and a TGI (M14 melanoma) of over 100 µM. The TGI (MALME-3M melanoma) was over 100 µM, the TGI (MCF7 breast) was 47.9 µM and the TGI (MDA-MB-231 breast) was 50 µM. For the same compound, the TGI (MDA-MB-435) was over 100 µM, the TGI (MDA-N) was over 100 µM and the TGI (MOLT-4 leukemia) was over 100 µM. For the same compound, the TGI (NCI-H226 lung) was over 100 µM, the TGI (NCI-H23 lung) was over 100 µM and the TGI (NCI-H460 lung) was over 100 µM. For the same compound, the TGI (NCI-H522 lung) was over 100 µM, the TGI (NCI/ADR-RES ovarian) was over 100 µM and the TGI (OVCAR-3 ovarian) was 51.1 µM. It also gave a TGI (OVCAR-4 ovarian) of over 100 µM, a TGI (OVCAR-5 ovarian) of over 100 µM and a TGI (OVCAR-8 ovarian) of over 100 µM. For the same compound, the TGI (PC-3 prostate) was 79.1 µM, the TGI (RPMI-8226 leukemia) was over 100 µM and the TGI (RXF 393 renal) was 38.5 µM. For the same compound, the TGI (SF-268 CNS) was over 100 µM, the TGI (SF-295 CNS) was 76.2 µM and the TGI (SK-MEL-2 melanoma) was 39 µM. It also gave a TGI (SK-MEL-28 melanoma) of over 100 µM, a TGI (SK-MEL-5 melanoma) of over 100 µM and a TGI (SK-OV-3 ovarian) of over 100 µM. For the same compound, the TGI (SN12C renal) was over 100 µM, the TGI (SNB-19 CNS) was over 100 µM and the TGI (SNB-75 CNS) was over 100 µM. The TGI (SR leukemia) was over 100 µM, the TGI (SW-620 colon) was over 100 µM and the TGI (T-47D breast) was over 100 µM. It also gave a TGI (U251 CNS) of 37.8 µM, a TGI (UACC-62 melanoma) of 50.9 µM and a TGI (UO-31 renal) of over 100 µM.
For CC(C(=O)NCNC(=O)c1ccccc1)C(=O)NCc1ccccc1 (stereo not given), the TGI (786-0 renal) was over 100 µM, the TGI (A549 NSCLC) was over 100 µM and the TGI (ACHN renal) was over 100 µM. For the same compound, the TGI (BT-549 breast) was over 100 µM, the TGI (CAKI-1 renal) was over 100 µM and the TGI (CCRF-CEM leukemia) was over 100 µM. For the same compound, the TGI (COLO 205 colon) was over 100 µM, the TGI (DU-145 prostate) was over 100 µM and the TGI (EKVX NSCLC) was over 100 µM. It also gave a TGI (HCT-116 colon) of over 100 µM, a TGI (HCT-15 colon) of over 100 µM and a TGI (HL-60(TB) leukemia) of over 100 µM. For the same compound, the TGI (HOP-92 NSCLC) was over 100 µM, the TGI (HS 578T breast) was over 100 µM and the TGI (HT29 colon) was over 100 µM. It also gave a TGI (IGROV1 ovarian) of over 100 µM, a TGI (KM12 colon) of over 100 µM and a TGI (M14 melanoma) of over 100 µM. For the same compound, the TGI (MALME-3M melanoma) was over 100 µM, the TGI (MCF7 breast) was over 100 µM and the TGI (MDA-MB-231 breast) was over 100 µM. The TGI (MDA-MB-435) was over 100 µM, the TGI (MDA-N) was over 100 µM and the TGI (MOLT-4 leukemia) was over 100 µM. The TGI (NCI-H226 lung) was over 100 µM, the TGI (NCI-H23 lung) was over 100 µM and the TGI (NCI-H460 lung) was over 100 µM. The TGI (NCI-H522 lung) was over 100 µM, the TGI (NCI/ADR-RES ovarian) was over 100 µM and the TGI (OVCAR-5 ovarian) was over 100 µM. The TGI (OVCAR-8 ovarian) was over 100 µM, the TGI (PC-3 prostate) was over 100 µM and the TGI (RPMI-8226 leukemia) was over 100 µM. For the same compound, the TGI (RXF 393 renal) was over 100 µM, the TGI (SF-268 CNS) was over 100 µM and the TGI (SF-295 CNS) was over 100 µM. For the same compound, the TGI (SF-539 CNS) was over 100 µM, the TGI (SK-MEL-2 melanoma) was over 100 µM and the TGI (SK-MEL-5 melanoma) was over 100 µM. For the same compound, the TGI (SK-OV-3 ovarian) was over 100 µM, the TGI (SN12C renal) was over 100 µM and the TGI (SNB-19 CNS) was over 100 µM. The TGI (SNB-75 CNS) was over 100 µM, the TGI (SR leukemia) was over 100 µM and the TGI (SW-620 colon) was over 100 µM. It also gave a TGI (T-47D breast) of over 100 µM, a TGI (TK-10 renal) of over 100 µM and a TGI (U251 CNS) of over 100 µM. It also gave a TGI (UACC-257 melanoma) of over 100 µM, a TGI (UACC-62 melanoma) of over 100 µM and a TGI (UO-31 renal) of over 100 µM.
